Key:
isolated whole rat heart [1] = assay: Myocardial necrosis (size of infarctus, TTC dye) of isolated rat heart after cold ischemia-reperfusion; conditions: 1 μM in Celsior solution, 8 h cold ischemia at 4° C. then reperfusion
Experimental: The rats were anesthetized by intraperitoneal injection of sodium pentobarbital (50 milligrams per kilogram (mg/kg)). They were then placed in dorsal decubitus. After isolating the femoral vein, heparin was administered intravenously (200 IU/kg). An abdominal incision was made, followed by a thoracic incision. The sternum was pulled towards the rat's head, using a clamp, and the diaphragm was dissected. The heart isolated from its pericardium was excised and stopped in the hypothermic Celsior solution. […] The hearts were then placed at 4° C. in the same solution for 8 h (the cold ischemia stage), prior to reperfusion (the reanimation stage). After 8 h of cold ischemia, each heart was fastened by its aorta to a cannula for continuous retrograde perfusion using Krebs Henseleit (KH, having the following composition in mM: glucose 11.0; NaCl 118.5: KCl 4.75; MgSO4 1.19, KH2PO4 1.2; NaHCO3 24.0; CaCl2 1.4). A constant pressure of 100 centimeters (cm) of H2O (corresponding to 74 millimeters of mercury (mmHg)) was imposed. […] For each slice, the ratio AN/AR was expressed as a percentage, representing the size of the infarctus. The sum of the infarctuses in all of the sections belonging to the same left ventricle gave the quantity of necrosis for the heart in question. […] At the end of cold ischemia, the hearts were reperfused and the size of infarctus was analyzed histologically after using TTC dye.

H9c2 cardiomyocytes = assay: MTT viability of H9c2 cardiomyocytes after cold ischemia-reperfusion; assay type: cell-based, rat
Experimental: This was a conventional model for culturing rat cardiomyocytes. The H9c2 cardiac cells (ATTC®) came from rat heart ventricles transfected with a pSV3 plasmid containing the SV40 gene. The cells were cultivated in high glucose Dulbecco's modified Eagle's medium (DMEM) (PAA®), with an additional 10% of Mycoplex FBS (PAA®) and 1% penicillin-streptomycin. The medium was changed every two days and re-seeding was performed at 70%-80% confluence.
(§1) MTT, or […] (Sigma), is a molecule that bonds to mitochondrial dehydrogenases (DH) in the presence of oxidized nicotimamide adenine dinucleotide and nicotimamide adenine dinucleotide phosphate (NAD+ and NADP+) coenzymes to form insoluble formazan crystals of violet color. The resulting violet color is evidence of mitochrondrial function and thus of cell viability. The crystals were dissolved in a permeabilization solution (dimethyl sulfoxide or DMSO, Sigma). This solubilization of formazan also gives rise to cell lysis. The plates were read by spectrophotometry (Multiskan Ex, Thermo, Electron Corporation®) at 550 nanometers (nm).
(§2) The purpose of this protocol was to determine the potentially protective effect of cyclosporin and/or taxol on cardiomyocytes placed in a cold ischemia situation at 4° C. for 24 hours (h), followed by reperfusion for 24 h, at the end of which the viability test (the MTT test) was performed. A “sham” group was not subjected to the ischemia—reperfusion sequence. At each of the doses tested, four different experiments were performed, and during each experiment, eight different cell wells were tested simultaneously.
(§3) Statistical analysis consisted in comparing means (Student's test between the group under study and the control group).
The viability of primary cardiomyocytes was evaluated after 24 h of cold ischemia and 24 h of reperfusion.
As before, the viability of H9c2 cardiomyocytes was evaluated after 24 h cold ischemia and 24 h reperfusion.

isolated whole rat heart [2] = assay: Functional recovery (LVDevP×HR) of perfused isolated rat heart (Langendorff mode) after cold ischemia-reperfusion; conditions: 1 μM in Celsior solution; 8 h cold ischemia at 4° C. + 1 h reperfusion at 37° C.; p<0.01
Experimental: The rats were anesthetized by intraperitoneal injection of sodium pentobarbital (50 milligrams per kilogram (mg/kg)). They were then placed in dorsal decubitus. After isolating the femoral vein, heparin was administered intravenously (200 IU/kg). An abdominal incision was made, followed by a thoracic incision. The sternum was pulled towards the rat's head, using a clamp, and the diaphragm was dissected. The heart isolated from its pericardium was excised and stopped in the hypothermic Celsior solution. […] The hearts were then placed at 4° C. in the same solution for 8 h (the cold ischemia stage), prior to reperfusion (the reanimation stage).
After 8 h of cold ischemia, each heart was fastened by its aorta to a cannula for continuous retrograde perfusion using Krebs Henseleit (KH, having the following composition in mM: glucose 11.0; NaCl 118.5: KCl 4.75; MgSO4 1.19, KH2PO4 1.2; NaHCO3 24.0; CaCl2 1.4). A constant pressure of 100 centimeters (cm) of H2O (corresponding to 74 millimeters of mercury (mmHg)) was imposed. The KH solution was bubbled continuously with 95% O2+5% CO2, in order to maintain its pH at 7.4.
A latex balloon was installed in the left ventricle and connected to a pressure sensor previously calibrated by internal calibration (0 to 200 mmHg). At the beginning of reperfusion, the balloon was inflated in order to obtain a telediastolic pressure of about 5 mmHg. […]

[3] = tested on: rat primary cardiomyocytes; assay: MTT viability of rat primary cardiomyocytes after cold ischemia-reperfusion; assay type: cell-based
Experimental: as §1, §2, §3

[4] = 1 μM, 5 μM and 10 μM in MM, 24 h cold ischemia + 24 h reperfusion
[5] = tested 0.25-10 μM in St. Thomas basal solution, 24 h cold ischemia + 24 h reperfusion

Compound: CC(=O)O[C@H]1C(=O)[C@@]2(C)[C@H]([C@H](OC(=O)c3ccccc3)[C@]3(O)C[C@H](OC(=O)[C@H](O)[C@@H](NC(=O)c4ccccc4)c4ccccc4)C(C)=C1C3(C)C)[C@]1(OC(C)=O)CO[C@@H]1C[C@@H]2O [taxol, paclitaxel]
- size of infarctus (AN/AR), % of the zone at risk (isolated whole rat heart [1]): 8.7%
- cardioprotective effect when added singly to LYPS, relative to "MM" reference group (H9c2 cardiomyocytes; [4]): adds nothing in terms of cardioprotective effect
- cardiomyocyte viability increased (MTT) relative to control group (H9c2 cardiomyocytes; agent at optimum concentration around 1 μM in St. Thomas basal solution, 24 h cold ischemia at 4° C. + 24 h reperfusion, p<0.001): about 90%
- optimum concentration for increasing cardiomyocyte viability (H9c2 cardiomyocytes; [5]): around 1 μM
- improvement in LVDevP×HR compared with the control group (isolated whole rat heart [2]): 25%
- cardioprotective effect when added singly to LYPS, relative to "MM" reference group [3, 4]: adds nothing in terms of cardioprotective effect
- cardiomyocyte viability increased (MTT) relative to control group ([3]; agent at optimum concentration around 1 μM in St. Thomas basal solution, 24 h cold ischemia at 4° C. + 24 h reperfusion, p<0.01): about 25%
- optimum concentration for increasing cardiomyocyte viability [3, 5]: around 1 μM

Source: patent US10440947B2, “Aqueous solution for preserving an organ and uses during hypothermic ischemia” (UNIVERSITE CLAUDE BERNARD LYON I, priority 2013, dated 2019)
